Where two headings read alike, the source gives them in different places.
Legend:
KDR kinase (790-1356 AA) = KDR kinase (790-1356 AA) (Homo sapiens (Human), UniProt P35968); assay: Inhibitory activity at KDR kinase (Lance Ultra Ulight-TK assay); type: biochemical
Outline: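 TR-FRET (Eu-anti-phosphotyrosine PT66) with 20 nM KDR preincubated with compound 20 min at 30 °C in HEPES pH 7.5 buffer with Mg2+/Mn2+, 0.5% DMSO.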

pERK in MDA-MB-231 cells = assay: Inhibitory activity at pERK (In Cell Western, MDA-MB-231 cells); type: cell-based; conditions: Homo sapiens
Outline: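 MDA-MB-231 cells were treated 2 h at 37 °C with 8 compound concentrations in 3-fold dilutions from 30 μM top (0.3% DMSO, DMEM with 0.1% BSA). Cells were then fixed, methanol-permeabilized and immunostained for pERK with PI counterstain. Fluorescence was read on Acumen and IC50 calculated.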

PLC-PRF-5 cells = assay: Inhibition of proliferation of PLC-PRF-5 cells (ATPlite); type: cell-based; conditions: Homo sapiens
Outline: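 PLC-PRF-5 cells in DMEM/10% FBS, seeded 2 h before compound; 8-point 3-fold dilutions from 30 μM final top, 0.3% DMSO. After 96 h at 37 °C, 5% CO2, ATP content read by ATPlite luminescence; IC50 calculated.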

B-Raf kinase = B-Raf kinase (Homo sapiens (Human), UniProt P15056); assay: Inhibitory activity at B-Raf kinase (ADP-GLO assay); type: biochemical
Outline: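 B-Raf (5 nM) was preincubated with compound (0.25% DMSO final) for 20 min at 30 °C in 50 mM Hepes pH 7.5, 10 mM Mg²⁺, 1 mM EGTA, 2 mM DTT. Reaction with 6 μM ATP and 30 nM GST-MEK1 ran 2 hrs at 30 °C. ADP was detected by ADP-GLO luminescence, giving IC50 values.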

[1] = Half-life in pre-clinical animal studies; type: in vivo; conditions: compared with compounds of the invention
tumor = assay: In vivo anti-tumor activity in pre-clinical animal studies; conditions: compared with compounds of the invention
[2] = MDA-MB-231, MDA-MB-231 cells, read-out: MDA-MB-231 pERK IC50
[3] = PLC-PRF-5, PLC-PRF-5 cells, read-out: PLC-PRF-5 cell proliferation IC50

Chain of KDR kinase (790-1356 AA) (P35968 790-1356): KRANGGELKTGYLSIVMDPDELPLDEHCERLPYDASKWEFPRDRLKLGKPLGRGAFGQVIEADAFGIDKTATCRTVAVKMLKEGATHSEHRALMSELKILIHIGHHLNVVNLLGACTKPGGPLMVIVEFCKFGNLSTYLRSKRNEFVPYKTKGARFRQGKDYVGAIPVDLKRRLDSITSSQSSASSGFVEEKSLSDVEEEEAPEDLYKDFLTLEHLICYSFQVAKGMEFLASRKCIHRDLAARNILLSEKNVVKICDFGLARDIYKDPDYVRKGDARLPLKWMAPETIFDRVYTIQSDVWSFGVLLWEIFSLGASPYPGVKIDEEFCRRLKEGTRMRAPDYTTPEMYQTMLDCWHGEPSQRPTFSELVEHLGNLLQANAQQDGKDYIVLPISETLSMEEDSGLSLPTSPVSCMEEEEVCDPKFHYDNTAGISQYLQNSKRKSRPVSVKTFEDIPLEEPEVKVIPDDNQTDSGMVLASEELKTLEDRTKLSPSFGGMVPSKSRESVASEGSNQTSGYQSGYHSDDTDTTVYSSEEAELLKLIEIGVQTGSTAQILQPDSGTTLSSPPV
Chain of B-Raf kinase (P15056 416-766): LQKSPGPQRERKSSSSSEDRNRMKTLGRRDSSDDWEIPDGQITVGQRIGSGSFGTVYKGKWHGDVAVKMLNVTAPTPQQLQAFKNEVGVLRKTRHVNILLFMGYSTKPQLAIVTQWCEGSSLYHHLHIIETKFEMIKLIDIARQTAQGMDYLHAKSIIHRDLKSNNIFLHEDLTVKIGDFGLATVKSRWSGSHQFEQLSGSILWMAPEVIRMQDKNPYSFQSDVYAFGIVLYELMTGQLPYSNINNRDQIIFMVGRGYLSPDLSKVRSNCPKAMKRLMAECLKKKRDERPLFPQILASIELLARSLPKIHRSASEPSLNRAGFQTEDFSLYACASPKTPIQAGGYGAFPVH

SMILES | IC50 (KDR kinase (790-1356 AA)) | IC50 (pERK in MDA-MB-231 cells; [2]) | IC50 (PLC-PRF-5 cells; [3]) | IC50 (B-Raf kinase) | IC50 (pERK in MDA-MB-231 cells; MDA-MB-231, read-out: MDA-MB-231 pERK IC50) | IC50 (PLC-PRF-5 cells; PLC-PRF-5, read-out: PLC-PRF-5 cell proliferation IC50) | half-life [1] | in vivo anti-tumor activities (tumor)
O=C(Nc1ccc(Oc2ccnc(NC(=O)C3CC3)c2)cc1)Nc1cc(C(F)(F)F)ccc1Cl [Exe. 142] | 10.4 nM | 13.9 nM | 642 nM | 39 nM |  |  |  | 
O=C(Nc1ccc(Oc2ccnc(NC(=O)C3CC3)c2)cc1)Nc1cc(OCC2CNC2)cc(C(F)(F)F)c1 [Exe. 237, N-[4-[4-[[3-(azetidin-3-ylmethoxy)-5-(trifluoromethyl)phenyl]carbamoylamino]phenoxy]-2-pyridyl]cyclopropanecarboxamide] | 13.9 nM | 730 nM | 14900 nM | 3.7 nM |  |  |  | 
O=C(Nc1ccc(Oc2ccnc(NC(=O)C3CC3)c2)c(F)c1)Nc1ccc2[nH]cc(F)c2c1 [Exe. 059] | 8.2 nM | 19.4 nM | 643 nM | 90 nM |  |  |  | 
O=C(Nc1cc(N2CC(F)(F)C2)cc(C(F)(F)F)c1)Nc1ccc(Oc2ccnc(NC(=O)C3CC3)c2)cc1F [Exe. 212] | 5.5 nM | 21.1 nM | 177 nM | 20.1 nM |  |  |  | 
Cc1cc(Oc2cc(NC(=O)C3CC3)ncn2)ccc1NC(=O)Nc1ccc(F)c(C(F)(F)F)c1 [Exe. 070, N-[6-[4-[[4-fluoro-3-(trifluoromethyl)phenyl]carbamoylamino]-3-methyl-phenoxy]pyrimidin-4-yl]cyclopropanecarboxamide] | 11 nM | 63.5 nM | 9300 nM | 145 nM |  |  |  | 
CC1CN(c2cc(NC(=O)Nc3ccc(Oc4ccnc(NC(=O)C5CC5)c4)c(F)c3)cc(C(F)(F)F)c2)C(=O)O1 (centres unmarked) [Exe. 041] | 4.2 nM | 18.1 nM | 358 nM | 37.5 nM |  |  |  | 
O=C(Nc1cc(N2CCS(=O)(=O)CC2)cc(C(F)(F)F)c1)Nc1ccc(Oc2ccnc(NC(=O)C3CC3)c2)c(F)c1 [Exe. 166] | 11.5 nM | 45.5 nM | 1640 nM | 27 nM |  |  |  | 
C=CC(=O)Nc1cc(NC(=O)Nc2ccc(Oc3ccnc(NC(=O)C4CC4)c3)c(F)c2)cc(C(F)(F)F)c1 [Exe. 163] | 11.6 nM | 32.9 nM | 998 nM | 24 nM |  |  |  | 
Cc1cc(Oc2cc(NC(=O)C3CC3)ncn2)ccc1NC(=O)Nc1ccc(Cl)c(C(F)(F)F)c1 [Exe. 001, N-[6-[4-[[4-chloro-3-(trifluoromethyl)phenyl]carbamoylamino]-3-methyl-phenoxy]pyrimidin-4-yl]cyclopropanecarboxamide] | 10.9 nM | 31 nM | 6900 nM | 39 nM |  |  |  | 
Cc1cc(NC(=O)Nc2ccc(Cl)c(C(F)(F)F)c2)cnc1Oc1ccnc(NC(=O)C2CC2)c1 [Exe. 017] | 29.2 nM | 18.8 nM | 2820 nM | 15.7 nM |  |  |  | 
CN1CCN(Cc2cc(NC(=O)Nc3ccc(Oc4ccnc(NC(=O)C5CC5)c4)c(F)c3)cc(C(F)(F)F)c2)CC1 [Exe. 167] | 16.1 nM | 262 nM | 1230 nM | 23.8 nM |  |  |  | 
CS(=O)(=O)Nc1cc(NC(=O)Nc2ccc(Oc3ccnc(NC(=O)C4CC4)c3)c(F)c2)cc(C(F)(F)F)c1 [Exe. 165] | 5.5 nM | 41 nM | 1070 nM | 6.6 nM |  |  |  | 
CC1CN(c2cc(NC(=O)Nc3ccc(Oc4ccnc(NC(=O)C5CC5)c4)c(F)c3)cc(C(F)(F)F)c2)CCO1 (centres unmarked) [Exe. 162] | 6.8 nM | 30.6 nM | 330 nM | 22.5 nM |  |  |  | 
CC(F)(F)c1ccnc(NC(=O)Nc2ccc(Oc3ccnc(NC(=O)C4CC4)c3)cc2F)c1 [Exe. 216] | 10.6 nM | 11.8 nM | 536 nM | 10 nM |  |  |  | 
CN1CCC(Oc2cc(NC(=O)Nc3ccc(Oc4ccnc(NC(=O)C5CC5)c4)c(F)c3)cc(C(F)(F)F)c2)CC1 [Exe. 164] | 30.7 nM | 198 nM | 2950 nM | 71.5 nM |  |  |  | 
O=C(Nc1ccc(Cl)c(C(F)(F)F)c1)Nc1ccc(Oc2ccnc(NC(=O)C3CC3)c2)cc1F [Exe. 029] | 3.9 nM | 10.1 nM | 790 nM | 7.3 nM |  |  |  | 

SMILES | IC50 (KDR kinase (790-1356 AA)) | IC50 (pERK in MDA-MB-231 cells; [2]) | IC50 (PLC-PRF-5 cells; [3]) | IC50 (B-Raf kinase) | IC50 (pERK in MDA-MB-231 cells; MDA-MB-231, read-out: MDA-MB-231 pERK IC50) | IC50 (PLC-PRF-5 cells; PLC-PRF-5, read-out: PLC-PRF-5 cell proliferation IC50) | half-life [1] | in vivo anti-tumor activities (tumor)
O=C(Nc1cc(N2CCCC2=O)cc(C(F)(F)F)c1)Nc1ccc(Oc2ccnc(NC(=O)C3CC3)c2)c(F)c1 [Exe. 052] | 15.5 nM | 22 nM | 360 nM | 13 nM |  |  |  | 
N#Cc1ccc(NC(=O)Nc2ccc(Oc3ccnc(NC(=O)C4CC4)c3)cn2)cc1C(F)(F)F [Exe. 133] | 9.1 nM |  |  | 25 nM | 23.6 nM | 1020 nM |  | 
Cc1cc(Oc2ccnc(NC(=O)C3CC3)c2)ncc1NC(=O)Nc1cc(C(C)(F)F)ccc1F [Exe. 128] | 9.8 nM | 38 nM | 819 nM | 6.2 nM |  |  |  | 
Cc1cc(NC(=O)Nc2cc(C(C)(F)F)ccc2F)ccc1Oc1cc(NC(=O)C2CC2)ncn1 [Exe. 116] | 7.9 nM | 30.4 nM | 125 nM | 111 nM |  |  |  | 
Cc1cc(NC(=O)Nc2cc(OC(C)C)cc(C(F)(F)F)c2)cnc1Oc1ccnc(NC(=O)C2CC2)c1 [Exe. 126] | 30.2 nM | 24.3 nM | 2440 nM | 61.4 nM |  |  |  | 
O=C(Nc1cc(-c2ccncc2)cc(C(F)(F)F)c1)Nc1ccc(Oc2ccnc(NC(=O)C3CC3)c2)c(F)c1 [Exe. 159] | 8 nM | 44.3 nM | 642 nM | 35.4 nM |  |  |  | 
CNC(=O)c1cc(Oc2ccc(NC(=O)Nc3ccc(Cl)c(C(F)(F)F)c3)cc2)ccn1 [sorafenib] |  |  |  |  |  |  | shorter half-life than many of the compounds in this invention | weaker than that of many of the compounds in the present invention
O=C(Nc1ccc(Cl)c(C(F)(F)F)c1)Nc1ccc(Oc2cc(NC(=O)C3CC3)ncn2)cc1F [Exe. 009] | 8.9 nM | 20.5 nM | 3650 nM | 26 nM |  |  |  | 
O=C(Nc1ccc(Oc2ccnc(NC(=O)C3CC3)c2)cc1)Nc1cccc(OC(F)(F)F)c1 [Exe. 146] | 7.8 nM | 11.4 nM | 689 nM | 14 nM |  |  |  | 
CS(=O)(=O)c1cc(NC(=O)Nc2ccc(Oc3ccnc(NC(=O)C4CC4)c3)c(F)c2)cc(C(F)(F)F)c1 [Exe. 037] | 13.5 nM | 33.9 nM | 768 nM | 26 nM |  |  |  | 
O=C(Nc1ccc(Oc2ccnc(NC(=O)C3CC3)c2)c(F)c1)Nc1cc(C2CC2)ccc1F [Exe. 058] | 13.7 nM | 30 nM | 43 nM | 116 nM |  |  |  | 
O=C(Nc1ccc(Oc2cc(NC(=O)C3CC3)ncn2)cc1)Nc1ccc(Cl)c(C(F)(F)F)c1 [Exe. 007] | 5.7 nM | 46 nM | 7240 nM | 24.8 nM |  |  |  | 
O=C(Nc1ccc(Oc2ccnc(NC(=O)C3CC3)c2)cc1)Nc1cccc(C(F)(F)F)c1 [Exe. 144] | 11.4 nM | 6 nM | 403 nM | 30 nM |  |  |  | 
O=C(Nc1ccc(Oc2cc(NC(=O)C3CC3)ncn2)c(F)c1)Nc1ccc(Cl)c(C(F)(F)F)c1 [Exe. 008] | 5.7 nM | 124 nM | 4550 nM | 24.9 nM |  |  |  | 
O=C(Nc1cccc(OC(F)(F)F)c1)Nc1ccc(Oc2ccnc(NC(=O)C3CC3)c2)cc1F [Exe. 034] | 10.2 nM | 4.7 nM | 219 nM | 9.4 nM |  |  |  | 
